Test results from patent US7598079B2, “Assay for identifying compounds which affect stability of mRNA” (Novation Pharmaceuticals, Inc., priority 1998, dated 2009).
Where two headings read alike, the source gives them in different places. Numbered stars: 1 amine (or outer) side, 2 acyl side, 3 side chain; on linkers, the order of the positions; unused ones are H or OH. Bridge positions count the residues as written; N and C are the ends. Square brackets hold non-standard residues; d marks the D form. Peptide text beside a SMILES is read from it. I, II: the chains in the order shown. Actinocin(9to1) = Cc1c2oc3c(C)ccc(C(=O)[*:1])c3nc-2c(C(=O)[*:2])c(N)c1=O; NMeV = CN[C@H](C(=O)O)C(C)C; Sar = CNCC(=O)O

Assays:
Format in all cases: cell-based, human
[1] = test system: THP-1 clones No. 53 and 63 (luciferase); assay: Half life of luciferase mRNA and protein after addition of compounds, clones No. 53 and 63; conditions: after 8 hours level comparable to radicicol analog A (1 μM)
Description: To measure mRNA degradation using luciferase protein activity it is important to know the half life of the luciferase enzyme in order to determine an optimal time for assaying for potential mRNA destabilizing agents by way of luciferase protein stability. The possibility exists that mRNA could be degraded but due to a long half life of the protein, high enzyme activities could persist. Therefore we analyzed luciferase activities after addition of the transcriptional inhibitor actinomycin D (act. D) or the translational inhibitor cycloheximide (CHX). […] In view of this relatively short half life of the luciferase enzyme, it is safe to assess substances for activity on mRNA degradation as early as 8 hours after compound addition.

[2] = test system: THP-1 clone No. 63 (luciferase mRNA with IL-1β 3′UTR instability sequence, three tandem AUUUA motifs); assay: Luciferase reporter gene assay, clone No. 63 (pGL2_Neo30 with 30 bp IL-1β 3′UTR mRNA instability sequence); conditions: for Effect on mRNA stability in the assay (Table 3 summary) / Luciferase Activity (% of Control) Clone No. 63: differentiated cells; for Effect on mRNA stability in the assay (Table 3 summary): clone 63 versus clone 53; for Luciferase Activity (% of Control) Clone No. 63: compound 1 μM; for Luciferase Activity Clone 63 γIFN/LPS stimulated: γIFN/LPS stimulated cells, mean of three experiments; for inhibition at 1 µM: Homo sapiens, THP-1
Description: (§1) In order to obtain a vector for stable integration into THP-1 cells, a XhoI-SaII fragment of the neo resistant gene (expressing aminoglycoside 3′phosphotransferase) derived from pMC1neoPolyA (Stratagene) was subcloned into the SaII site of pGL2-Control (Promega). This resulting plasmid was called pGL2_Neo. A 30 bp fragment (containing three tandem AUUUA motifs and flanking IL-1β 3′UTR sequence) obtained by annealing two complementary synthetic oligonucleotides (see FIG. 2) was subcloned into pGL2_Neo using the PflMI restriction site. […] The lacZ gene was obtained from a HindIII/BamHI restriction digest of pSV-beta-Galactosidase (Promega) and subcloned into the HindIII/BamHI site of pGL2-Control (Promega).
(§2) THP-1 cells were then cotransfected with either pGL2_Neo and pGL2-β-galactosidase vectors (to generate control cell lines) or with pGL2_Neo30 and pGL2-β-galactosidase vectors by electroporation. 10^7 cells/ml in 1.3 mM KH2PO4, 7.36 mM Na2HPO4, 2.44 mM KCl, 124 mM NaCl, 5 mM glucose, 9.64 μM MgCl2 and 16 μM CaCl2 pH 7.2 were transfected with 20 μg of DNA in a Bio-Rad Gene Pulser (250V, 690 μF and indefinite resistance) using a 0.4 cm cuvette. Cells were subsequently cultured in RPMI medium containing 10% FBS, 2 mM L-Gln (L-glutamine), 50 μM 2-mercaptoethanol and 600 μg/ml of G418 (geneticin). After transfection of pGL2_Neo30 and pGL2_Neo into THP-1 cells, G418 resistant stable cell lines were obtained by selection with G418 and assayed for luciferase activity. Cotransfected cell lines were also assayed for β-galactosidase activity which can serve as an internal control (see Example 5 below). One cell line of each transfection was chosen for further analysis; the pGL2_Neo30/pGL2-β-galactosidase cell line was referred to as clone No. 63 and the pGL2_Neo/pGL2-β-galactosidase cell line as clone No. 53. No endogenous luciferase activity could be detected in normal THP-1 cells.
(§3) The transfected human monocytic leukaemia cell lines, clones No. 53 and 63 are grown in RPMI medium supplemented with 110 U/ml penicillin, 100 μg/ml streptomycin, 2 mM L-Gln and 2 g/l NaHCO3. Heat-treated FBS (5%) is added before use. The cells are grown to a density of 5×10^5/ml and induced to differentiate with 100 U/ml (final concentration) γIFN. Three hours later, 10 μl of LPS (5 μg/ml final concentration) is added. This time point is designated time 0. Compounds are added at various times after LPS addition as indicated.
(§4) In order to adapt the system to the use of 96 well plates, cells were grown in Packard flat bottom white polystyrene microplates (Cat. No. 6005180) in RPMI medium lacking phenol red (AMIMED). Cells were plated at 5×10^4/well. After treatment of the cells, luciferase was measured using the Packard Luc Lite system (Cat. No. 601691 1) according to the manufacturer's instructions in a final volume of 205 μl. Briefly, to a cell suspension of 5×10^5 cells/ml, γIFN (1000 U/ml, Boehringer Mannheim, No. 1050494) to a final concentration of 100 U/ml and 0.25% (v/v) Luc Lite Enhancer was added. After a 3 hour incubation LPS (50 μg/ml Sigma, L-8274) was added to give 5 μg/ml final concentration. The cells were then plated at 5×10^4/100 μl/well into flat bottom white polystyrene microplates (Packard, Cat. No. 6005180) and incubated for 16 hours. 5 μl of compound solution or control vehicle was then added and the cells were further incubated as indicated. 100 μl of luciferase substrate solution was added and the plates were covered with TopSeal-A press-on adhesive sealing film (Packard Cat. No. 6005185) before measuring luminescence with a Packard Top Count Scintillation Counter at 22° C. The luciferase signal was stable for at least 90 min.
(§5) The THP-1 cell lines, clone Nos. 63 and 53 are grown, differentiated with γIFN and stimulated with LPS identical to normal THP-1 cells. Radicicol analog A was added 16 hours after the addition of LPS and cell extracts were then taken 8 hours later or as indicated. […]

[3] = test system: THP-1 control clone No. 53 (luciferase mRNA without instability sequence); assay: Luciferase reporter gene assay, control clone No. 53 (pGL2_Neo, no instability sequence); conditions: for Luciferase Activity (% of Control) Clone No. 53: compound 1 μM, differentiated cells; for Luciferase Activity Clone 53 γIFN/LPS stimulated: γIFN/LPS stimulated cells, mean of three experiments
Description: as §1, §2, §3, §4, §5

[4] = test system: THP-1 clone 63 (pGL2-β-galactosidase, lacZ without mRNA instability sequences); assay: β-galactosidase internal control activity, clone 63; conditions: mean of three experiments; for β-galactosidase activity Clone 63 Unstimulated: unstimulated cells; for β-galactosidase activity Clone 63 γIFN/LPS stimulated: γIFN/LPS stimulated cells
Description: as §1, §2
(§6) In the previous examples, test compounds were assayed by comparing their activity in two separate cell lines (clone Nos. 53 and 63). However, clone 63 was cotransfected with two separate plasmids: one plasmid (pGL2_Neo30) contained the luciferase gene with the 30 bp instability sequence driven by the SV40 promoter and the other plasmid (pGL2-β-galactosidase, FIG. 3B) contained the lacZ gene driven by the SV40 promoter but contained no mRNA instability sequences. The β-galactosidase activity of this cell line should not be affected by exposure of the cells to compounds which promote mRNA instability via mRNA instability sequences. As a result, one should be able to screen for compounds having mRNA instability activity by simply comparing luciferase activity in unstimulated cells versus stimulated cells and comparing the β-galactosidase activity in these same cells. […]

[5] = test system: THP-1 clone 53 (pGL2-β-galactosidase, lacZ without mRNA instability sequences); assay: β-galactosidase internal control activity, clone 53; conditions: mean of three experiments; for β-galactosidase activity Clone 53 Unstimulated: unstimulated cells; for β-galactosidase activity Clone 53 γIFN/LPS stimulated: γIFN/LPS stimulated cells
Description: as §1, §2, §6

[6] = test system: IL-1β-AU cDNA derived RNA (3′ UTR AREs deleted) in THP-1 cells; assay: RNase protection analysis of IL-1β-AU (ARE-deleted) RNA in stably transfected THP-1 cells; conditions: THP-1 cells stably transfected with IL-1β-AU construct
Description: For examples 1-5, the segment of 3′ UTR of IL-1β which contains all the AREs was deleted and the resulting IL-1β-AU cDNA was subcloned into an expression vector.

[7] = test system: THP-1 clone No. 63 (luciferase mRNA with IL-1β 3′UTR instability sequence, three tandem AUUUA motifs); assay: Luciferase reporter gene assay, clone No. 63 (pGL2_Neo30 with 30 bp IL-1β 3′UTR mRNA instability sequence); conditions: for Luciferase Activity Clone 63 Unstimulated: unstimulated cells, mean of three experiments
[8] = test system: THP-1 control clone No. 53 (luciferase mRNA without instability sequence); assay: Luciferase reporter gene assay, control clone No. 53 (pGL2_Neo, no instability sequence); conditions: 10 μM; unstimulated cells; mean of three experiments

C[C@@H]1C[C@@H]([C@H](O)CC2CC(=O)NC(=O)C2)C(=O)[C@@H](C)C1 [cycloheximide]
Luciferase activities after addition of translational inhibitor ([1]; 20 μM): rapidly declined

Radicicol
Effect on mRNA stability in the assay (Table 3 summary) ([2]; 1 μM): clear effect on mRNA stability | Luciferase Activity (% of Control) Clone No. 63 [2]: 47 % of Control | Luciferase Activity (% of Control) Clone No. 53 [3]: 98 % of Control

C[C@@H]1C[C@H]2[C@@H]3CCC4=CC(=O)C=C[C@]4(C)[C@@]3(F)[C@@H](O)C[C@]2(C)[C@@]1(O)C(=O)CO [Dexamethasone]
Luciferase Activity (% of Control) Clone No. 63 [2]: 63 % of Control | Luciferase Activity (% of Control) Clone No. 53 [3]: 72 % of Control

O=C1CCC(N2C(=O)c3ccccc3C2=O)C(=O)N1 (centres unmarked) [Thalidomide]
Luciferase Activity (% of Control) Clone No. 63 [2]: 112 % of Control | Luciferase Activity (% of Control) Clone No. 53 [3]: 98 % of Control

Stemphon
Luciferase Activity (% of Control) Clone No. 63 [2]: 90 % of Control | Luciferase Activity (% of Control) Clone No. 53 [3]: 95 % of Control

Cc1c2oc3c(C)ccc(C(=O)N[C@@H]4C(=O)N[C@H](C(C)C)C(=O)N5CCC[C@H]5C(=O)N(C)CC(=O)N(C)[C@@H](C(C)C)C(=O)O[C@@H]4C)c3nc-2c(C(=O)N[C@@H]2C(=O)N[C@H](C(C)C)C(=O)N3CCC[C@H]3C(=O)N(C)CC(=O)N(C)[C@@H](C(C)C)C(=O)O[C@@H]2C)c(N)c1=O [actinomycin D] (I: T[dV]P[Sar][NMeV] / II: T[dV]P[Sar][NMeV]; ester I:1-I:C, II:1-II:C; linker I:N-II:N via Actinocin(9to1))
Luciferase activities after addition of transcriptional inhibitor ([1]; 20 μg/ml): rapidly declined

C=C(C/C=C/C(C)(C)O)[C@@H]1CC[C@]2(C)[C@@H]1CC[C@@H]1[C@@]3(C)CC[C@H](O)C(C)(C)[C@@H]3CC[C@]12C [(17α)-23-(E)-dammara-20,23-dien-3β,25-diol]
Luciferase Activity (% of Control) Clone No. 63 [2]: 91 % of Control | Luciferase Activity (% of Control) Clone No. 53 [3]: 116 % of Control

COc1cc(O)c2c(c1OC)/C=C/C[C@H](O)[C@H](O)C(=O)/C=C\C[C@H](C)OC2=O [Radicicol analog A, radicicol analog A]
Effect on mRNA stability in the assay (Table 3 summary) ([2]; 1 μM): clear effect on mRNA stability | Luciferase Activity Clone 63 γIFN/LPS stimulated ([2]; 1 μM): 7 % control | Luciferase Activity Clone 63 γIFN/LPS stimulated ([2]; 10 μM): 2 % control | inhibition at 1 µM ([2]; 1 μM, differentiated clone No. 63, 8 hours, read-out: Inhibition of luciferase activity, greatest in some cases): 93% | inhibition at 1 µM ([2]; 1 μM, differentiated clone No. 63, added 16 h after LPS, extracts 8 hours later, read-out: Inhibition of luciferase activity, on average): 50% | Luciferase Activity (% of Control) Clone No. 63 [2]: 49 % of Control | Concentration dependence of luciferase inhibition in differentiated clone No. 63 ([2]; differentiated clone No. 63, 8 hr. treatment (FIG. 8)): Concentration dependent inhibition of luciferase activity | Luciferase Activity Clone 53 γIFN/LPS stimulated ([3]; 1 μM): 88 % control | Luciferase Activity Clone 53 γIFN/LPS stimulated ([3]; 10 μM): 63 % control | Luciferase Activity (% of Control) Clone No. 53 [3]: 120 % of Control | Effect on control clone (No. 53) at high concentrations (cytotoxicity or inhibitory activity on transcription) ([3]; concentrations higher than 5×10^−6 M): also inhibited the control clone | Effect on luciferase activity of control clone No. 53 ([3]; up to 5×10^−6M): no effects | β-galactosidase activity Clone 63 Unstimulated ([4]; 1 μM): 96 % control | β-galactosidase activity Clone 63 γIFN/LPS stimulated ([4]; 1 μM): 97 % control | β-galactosidase activity Clone 63 Unstimulated ([4]; 10 μM): 84 % control | β-galactosidase activity Clone 63 γIFN/LPS stimulated ([4]; 10 μM): 70 % control | β-galactosidase activity Clone 53 Unstimulated ([5]; 1 μM): 99 % control | β-galactosidase activity Clone 53 γIFN/LPS stimulated ([5]; 1 μM): 98 % control | β-galactosidase activity Clone 53 Unstimulated ([5]; 10 μM): 103 % control | β-galactosidase activity Clone 53 γIFN/LPS stimulated ([5]; 10 μM): 62 % control | Response of AU-less derived RNA to compound (RNase protection) [6]: showed resistance | Reduction of luciferase activity in undifferentiated clone No. 63 ([7]; 1 μM, undifferentiated cells, 8 hr. treatment): only a limited reduction of luciferase activity | Luciferase Activity Clone 63 Unstimulated ([7]; 1 μM): 63 % control | Luciferase Activity Clone 63 Unstimulated ([7]; 10 μM): 11 % control | Luciferase Activity Clone 53 Unstimulated [8]: 87 % control
